The subject of one data set is PC-3. Nature of the data set: Two-dose antiproliferative screening, SRB assay, PC-3. The format is cell-based. The following applies: Homo sapiens, PC-3, 72 h, triplicates; for inhibition at 1 µM: read-out: Growth Inhibition (%) PC-3 1 μM Average; for inhibition at 10 µM: read-out: Growth Inhibition (%) PC-3 10 μM Average. The protocol:
(§1) MCF-7(breast adenocarcinoma), PC-3 (prostate cancer) and COLO-205 (colorectal cancer) were obtained from Nawah Scientific inc., (Mokatam, Cairo, Egypt). Cells were maintained in Dulbecco’s Modified Eagle’s media (DMEM media) supplemented with […] of streptomycin, 100 units/mL of penicillin and 10% of heat-inactivated fetal bovine serum in humidified, 5% (v/v) CO2 atmosphere at 37 °C.
(§2) Cell viability was assessed by the sulforhodamine B (SRB) assay. Aliquots of cell suspension (5 × 10^3 cells, 100 μL) were transferred into 96 well plates and incubated in complete media for 24 h. Cells were treated with another aliquot media (100 μL) containing compounds 3a–f, 4a–f, 6a–f, 7a–f, 9a–b at concentrations of 1 and 10 μM). After 72 h of drug exposure, cells were fixed by replacing media with trichloroacetic acid (TCA, 10%, 150 μL) and incubated at 4 °C for 1 h. The TCA solution was removed, and the cells were washed five times with distilled water. Aliquots of SRB solution (0.4%w/v, 70 μL) were added and incubated in a dark place at room temperature for 10 min. Plates were washed three times with 1% acetic acid and allowed to air dry overnight. Then, a solution of TRIS base and TRIS HCl (TRIS buffer, 10 mM, 150 μL) was added to dissolve protein bound SRB stain. The absorbance was measured at 540 nm using BMGLABTECH®–FLUOstar omega micro-plate reader (Ortenberg, Germany).

In data set [1] the test system is COLO-205. Nature of the data set: Two-dose antiproliferative screening, SRB assay, COLO-205. Type of data set: cell-based, human. The following applies: triplicates; for Growth Inhibition (%) COLO-205 10 μM Average: 72 h; for inhibition at 1 µM / inhibition at 10 µM: Homo sapiens, COLO 205, 72 h; for inhibition at 1 µM: read-out: Growth Inhibition (%) COLO-205 1 μM Average; for inhibition at 10 µM: read-out: Growth Inhibition (%) COLO-205 10 μM Average. How it is done:
as §1, §2

For another data set, the system named is MCF-7. Nature of the data set: Two-dose antiproliferative screening, SRB assay, MCF-7. The format is cell-based. The following applies: Homo sapiens, MCF7, 72 h, triplicates; for inhibition at 1 µM: read-out: Growth Inhibition (%) MCF-7 1 μM Average; for inhibition at 10 µM: read-out: Growth Inhibition (%) MCF-7 10 μM Average. The protocol: as §1, §2
For data set [2], the system named is COLO-205. Nature of the data set: IC50 against COLO-205, SRB assay. The format is cell-based. As to conditions: Homo sapiens, 0.001–100 μM. The protocol: as §2
The same procedures used to screen two-dose anticancer activities were applied in determining IC50 values against COLO-205 using SRB assay. Cells were maintained at Roswell Park Memorial Institute media (RPMI media). The test was performed using 0.001–100 μM of compounds 4a (IC261), 4b, 4d, 4e, 6e and 6f. IC50 values were calculated using the equation for Boltzman sigmoidal concentration–response curve using the nonlinear regression fitting models by GraphPad, Prism version 5 (GraphPad Software Inc., La Jolla, CA, USA).

`COc1cc(OC)c(/C=C2/C(=O)Nc3ccc(Cl)cc32)c(OC)c1` [Compound 4c, (E)-5-chloro-3-(2,4,6-trimethoxybenzylidene)indolin-2-one] registered a melting point of 244 to 247 °C. In addition, in the data set with PC-3, the inhibition at 1 µM was determined as 28.9% and the inhibition at 10 µM amounted to 62.2%. In addition, in the data set with COLO-205 [1], the “Growth Inhibition (%) COLO-205 10 μM Average” value was found to be 58.44%, the inhibition at 1 µM was 2.67% and the inhibition at 10 µM was determined as 58%. For the same compound, in the data set with MCF-7, the inhibition at 1 µM is 17.9% and the inhibition at 10 µM is 65.1%.
Regarding `COc1cc(OC)c(/C=C2/C(=O)Nc3ccc(F)cc32)c(OC)c1` [Compound 4d, (E)-5-fluoro-3-(2,4,6-trimethoxybenzylidene)indolin-2-one], the melting point is 212 to 215 °C. This compound also displayed an IC50 in the data set with COLO-205 [2] of 1 µM. Also, in the data set on PC-3, the inhibition at 1 µM was found to be 23.8% and the inhibition at 10 µM was 58%. For the same compound, in the data set with COLO-205 [1], the “Growth Inhibition (%) COLO-205 10 μM Average” value amounted to 64.01%, the inhibition at 1 µM is 9.69% and the inhibition at 10 µM was determined as 64%. Further, in the data set with MCF-7, the inhibition at 1 µM was determined as 10% and the inhibition at 10 µM worked out at 66.1%.
Compound `COc1cc(/C=C2/C(=O)N(Cc3ccc(Cl)cc3)c3cc(Cl)ccc32)cc(OC)c1OC` [Compound 6e, (E)-6-chloro-1-(4-chlorobenzyl)-3-(3,4,5-trimethoxybenzylidene) indolin-2-one] came in with a concentration for half-maximal inhibition (IC50) with COLO-205 [2] of 15.3 µM. Also, the inhibition at 1 µM in the data set on PC-3 was determined as 3.22%; in the data set on COLO-205 [1] it was 6.49%; with MCF-7, 3.69%. Also, the inhibition at 10 µM in the data set with PC-3 amounted to 5.65%; in the data set with COLO-205 [1], 72.6%; in the data set with MCF-7, 6%.
`COc1cc(/C=C2/C(=O)N(Cc3ccc(F)cc3)c3cc(Cl)ccc32)cc(OC)c1OC` [Compound 6f, (E)-6-chloro-1-(4-fluorobenzyl)-3-(3,4,5-trimethoxybenzylidene) indolin-2-one]: the IC50 with COLO-205 [2] turned out to be 10.6 µM. Also, the inhibition at 1 µM is 0.4% in the data set with PC-3, 3.67% in the data set on COLO-205 [1] and 3.56% in the data set on MCF-7. In addition, the inhibition at 10 µM in the data set on PC-3 worked out at 23.4%; with COLO-205 [1], 63.8%; in the data set on MCF-7, 29.9%.
Compound `COc1cc(/C=C2/C(=O)N(CC(=O)OC(C)(C)C)c3cc(Cl)ccc32)cc(OC)c1OC` [Compound 9a, t-Butyl (E)-2-(6-chloro-2-oxo-3-(3,4,5-trimethoxybenzylidene)indolin-1-yl)acetate] came in with a melting point of 82 to 85 °C. In addition, in the data set with PC-3, the inhibition at 1 µM is 1.19% and the inhibition at 10 µM was 5.56%. Further, in the data set on COLO-205 [1], the inhibition at 1 µM is 3.05% and the inhibition at 10 µM worked out at 13%. Moreover, in the data set on MCF-7, the inhibition at 1 µM was 2.11% and the inhibition at 10 µM turned out to be 7.11%.
Compound `CCOC(=O)CN1C(=O)/C(=C/c2cc(OC)c(OC)c(OC)c2)c2ccc(Cl)cc21` [Compound 9b, Ethyl (E)-2-(6-chloro-2-oxo-3-(3,4,5-trimethoxybenzylidene)indolin-1-yl)acetate] yielded a melting point of 60 to 62 °C. In the data set with PC-3, the inhibition at 1 µM was 1.66% and the inhibition at 10 µM stood at 13.2%. Besides, in the data set on COLO-205 [1], the inhibition at 1 µM came out at 35.1% and the inhibition at 10 µM came out at 40.9%. In addition, in the data set with MCF-7, the inhibition at 1 µM came to 2.3% and the inhibition at 10 µM worked out at 6.82%.

The values above are taken from PMC8620390, “New Multi-Targeted Antiproliferative Agents: Design and Synthesis of IC261-Based Oxindoles as Potential Tubulin, CK1 and EGFR Inhibitors” (Pharmaceuticals, 2021).
